Data published in patent US20100174075A1, “USE OF NITRIC OXIDE-RELEASING STATINS IN THE TREATMENT OF PULMONARY ARTERIAL HYPERTENSION” (NICOX S.A., priority 2007, published 2010).

Experiments:
[1] = tested on: Human pulmonary artery smooth muscle cells (PASMCs); experiment: DNA synthesis by [3H-methyl]-thymidine incorporation in PDGF-stimulated PASMCs; assay type: cell-based; conditions: PDGF-BB 5 ng/ml, 24 hours
Procedure: DNA synthesis was measured by [^3H-methyl]-thymidine incorporation over 24 hours as previously described.
Human pulmonary artery smooth muscle cells (PASMCs) were seeded in 48-well plates at a density of 5×10^4 cells/well in Dulbecc's modified Eagle medium (DMEM) containing 10% fetal bovine […] (FBS). Cells were allowed to adhere overnight, providing a monolayer of approximately 80-90% confluence, and then quiesced for 48 hours with daily changes in serum-free DMEM. Cells were subsequently incubated in fresh medium containing 0.25 μCi/well [^3H-methyl]-thymidine (GE Healthcare, Little Chalfont, Buck's, UK) and treated with pravastatin and NO-releasing pravastatin (Example 1 of WO 2004/105754) at stated concentrations in the presence and absence of recombinant human platelet-derived growth factor-BB (PDGF) (5 ng/ml). Four to six replicates were analysed per treatment and [^3H-methyl]-thymidine uptake determined by liquid scintillation analysis (2200CA TRI-CARB, United Technologies Packcard, Pangbourne, UK).

[2] = tested on: Endothelin-1 (ET-1) release from PASMCs; experiment: TGF-β1-stimulated ET-1 release from PASMCs (chemiluminescent immunoassay); assay type: cell-based, human; conditions: 1 μM; TGF-β1 10 ng/ml; PASMCs conditioned medium
Procedure: Endothelin-1 (ET-1) release from PASMCs was measured in conditioned media using a chemiluminescent immunoassay system (QuantiGlo®, R&D Systems, UK). Cells were grown to confluence in 24-well plates (5×10^4 cells per well) in DMEM containing 10% FBS and serum-deprived for 24-hours prior to stimulation with transforming growth factor-[…] (TGF-β1) (10 ng/ml) and treatment with pravastatin and NO-releasing pravastatin (Example 1 of WO 2004/105754). Release experiments were also conducted in the presence of mevalonic acid (MVA), farnesylpyrophosphate (FPP), geranylgeranylpyrophosphate (GGPP) and inhibitors of geranylgeranyl transferase (GGTI-2133), farnesyl transferase (FTI-277) and Rho Kinase (Y27632). Production of MMP-9 was induced by dual stimulation with tumour necrosis factor-α (TNF-α) (10 ng/ml) and phorbol 12-[…] 13-acetate (PMA) (0.1 μM) and measured in conditioned medium using a Biotrack® ELISA-based immunoassay (GE Healthcare, UK). In the presence of TGF-β1 (10 ng/ml), ET-1 production by PASMCs increased markedly, compared with control serum-deprived cells.

`CC[C@H](C)C(=O)O[C@H]1C[C@H](O)C=C2C=C[C@H](C)[C@H](CC[C@@H](O)C[C@@H](O)CC(=O)O)[C@H]21` [Pravastatin] was tested, and the “[3H-Methyl]-thymidine incorporation (% of PDGF)” value ([1]; 1 μM) was 95.0 ± 3.6 % of PDGF, the “[3H-Methyl]-thymidine incorporation (% of PDGF)” value ([1]; 5 μM) was 92.5 ± 4.2 % of PDGF and the “[3H-Methyl]-thymidine incorporation (% of PDGF)” value ([1]; 10 μM) was 89.5 ± 2.4 % of PDGF. For the same compound, the “ET-1 (% of TGF-β1)” value [2] was 89.9 ± 12.8 % of TGF-β1.
